Data from patent US20160256421A1, “COMPOSITION CONTAINING EUGENOL AS ACTIVE INGREDIENT FOR PREVENTING OR TREATING ATOPIC DERMATITIS” (SEOUL NATIONAL UNIVERSITY R&DB FOUNDATION, priority 2013, published 2016).

Columns and labels:
[1] = tested on: histamine-induced pruritus; assay: Scratch test, histamine-induced pruritus, simultaneous intradermal injection of compound; type: in vivo, mice; settings: 10 μM compound injected simultaneously with 500 μg/site histamine, 30 minutes, histamine only about 152, FIG. 11
Procedure: In order to confirm reactions to pruritus-inducing substances such as histamine or serotonin in the present invention, a behavior experiment was conducted. In order to induce scratching, histamine and serotonin which are known to induce itchy sensation in humans were used. Here, histamine or serotonin was diluted with sterilized saline solution. On the day before the experiment, experimental animals were anaesthetized by mixing zolitel and rompun at a ratio of 1:4 and injecting 1 mL/kg thereof, and hair on the nape areas of a 1.5 cm×1.5 cm square was removed using a clipper on the nape of experimental animals. On the day of the experiment, a box of 10 cm×20 cm×15 cm dimensions was produced and mice were stabilized for 30 minutes therein. Thereafter, 100 μL of solvents or the experimental substance was applied on the back of the neck of mice, and after 30 minutes, 50 μL of pruritus-inducing substances (500 μg/site of histamine or 10 μg/site of serotonin) was injected at the back of the neck of experimental animals via intradermal injection. Next, reactions of experimental animals were video-recorded for 30 minutes, and a scratch test was conducted by counting up and down of a hind paw of an experimental animal to the injected area in the back of the neck as one scratch. […]
As described in Experimental Example 4, in order to induce scratching, experimental animals in the control group were injected with 500 μg/site of histamine at the back of the neck via intradermal injection, and along with the histamine, the experimental group was simultaneously injected with 10 μM isoeugenol (mixture of cis and trans, 82 ng) and 10 μM methyleugenol (89 ng) as representative eugenol derivatives, as well as 10 μM eugenol (82 ng). Thereafter, the reactions of experimental animals were video-recorded for 30 minutes, and a scratch test was conducted by counting the action of going up and down of a hind paw of an experimental animal to the injected area in the back of the neck as one scratch.

[2] = tested on: atopic dermatitis animal models (oxalozone-induced); assay: Visual inspection of dermal recovery in atopic dermatitis animal models; type: in vivo, balb/c nude mice; settings: 200 μL of 3 wt % eugenol cream, same time of a day for a week, FIG. 2
Text: 7-week-old male C57/BL6 mice were used in the present experiment, and in order to produce atopic dermatitis models, 7-week-old male balb/c nude mice were purchased from Orient Bio (Korea) and used. The method described in the manuscript of Kuraishi et al., presented the original form of mouse models developed in the present invention (Kuraishi et al., 1995). The group consisting of male BL6/C57 mice weighing 20 g to 23 g was used in the experiment. The experiment proceeded after experimental animals were accustomed to the conventional environment of 23±2° C. and 55±15% humidity for 3 days, in which light was constrained from 8 pm to 8 am, and were given ad libitum access to food and water. Atopic dermatitis animal models were produced with reference to Hatano et al. (2011), and it is known that TRPV1 is mediated in the developmental mechanism. Particularly, balb/c nude mice were used to produce the atopic dermatitis animal models. In the first two days, 50 μL of 5% oxalozone was treated to sensitize the back of the neck of experimental animals, and a week of recovery followed. In the next 4 weeks, 60 μL of 0.5% oxalozone was treated for a total of 12 times to complete atopic dermatitis animal models (FIG. 1). […]

[3] = tested on: histamine-induced pruritus; assay: Scratch test, histamine-induced pruritus, cream applied; type: in vivo, mice; settings: histamine 500 μg intradermal
Text: (§1) 7-week-old male C57/BL6 mice were used in the present experiment, and in order to produce atopic dermatitis models, 7-week-old male balb/c nude mice were purchased from Orient Bio (Korea) and used. The method described in the manuscript of Kuraishi et al., presented the original form of mouse models developed in the present invention (Kuraishi et al., 1995). The group consisting of male BL6/C57 mice weighing 20 g to 23 g was used in the experiment. The experiment proceeded after experimental animals were accustomed to the conventional environment of 23±2° C. and 55±15% humidity for 3 days, in which light was constrained from 8 pm to 8 am, and were given ad libitum access to food and water. In order to confirm reactions to pruritus-inducing substances such as histamine or serotonin in the present invention, a behavior experiment was conducted. In order to induce scratching, histamine and serotonin which are known to induce itchy sensation in humans were used. Here, histamine or serotonin was diluted with sterilized saline solution. […] Next, reactions of experimental animals were video-recorded for 30 minutes, and a scratch test was conducted by counting up and down of a hind paw of an experimental animal to the injected area in the back of the neck as one scratch. […]

[4] = tested on: serotonin-induced pruritus; assay: Scratch test, serotonin-induced pruritus, cream applied; type: in vivo, mice; settings: serotonin 10 μg
Text: as §1

mechanical pain = assay: von-Frey test, acute mechanical pain reactions; type: in vivo, mice; settings: 3 wt % eugenol
Procedure: However, effects of blocking pain by blocking Na ion channels are induced by blocking all the dermal sensory information and thus are non-specific phenomena. Therefore, von-Frey test was conducted to examine whether antipruritic effects are induced by reduced excitation via blocking voltage-dependent Na ion channels of sensory nerves by confirming whether eugenol at a pruritus-effective concentration blocks pain reactions. With reference to Chaplan et al. (1994), hind paws of experimental animals were stimulated with von-Frey filaments (0.02 g to 4 g), and 50% avoidance reactions were measured. Through this process, avoidance reactions to mechanical stimulations were measured and assessed as a reaction threshold.

[5] = tested on: heat pain (capsaicin receptors); assay: Hargreaves test, acute heat pain reactions; type: in vivo, mice; settings: 3 wt % eugenol compared to the base cream
Procedure: In order to examine whether 3 wt % eugenol acts on capsaicin receptors and effects behavioral reactions to heat stimulation, Hargreaves test was conducted. With reference to Hargreaves et al. (1988), heat stimulation by light was delivered to a hind paw of a subject, and the corresponding avoidance reaction time was measured.

TRPV1 = TRPV1 (Homo sapiens, UniProt Q8NER1); settings: high concentration; cited from earlier work
TRPV1, sequence (Q8NER1 whole entry, species assumed): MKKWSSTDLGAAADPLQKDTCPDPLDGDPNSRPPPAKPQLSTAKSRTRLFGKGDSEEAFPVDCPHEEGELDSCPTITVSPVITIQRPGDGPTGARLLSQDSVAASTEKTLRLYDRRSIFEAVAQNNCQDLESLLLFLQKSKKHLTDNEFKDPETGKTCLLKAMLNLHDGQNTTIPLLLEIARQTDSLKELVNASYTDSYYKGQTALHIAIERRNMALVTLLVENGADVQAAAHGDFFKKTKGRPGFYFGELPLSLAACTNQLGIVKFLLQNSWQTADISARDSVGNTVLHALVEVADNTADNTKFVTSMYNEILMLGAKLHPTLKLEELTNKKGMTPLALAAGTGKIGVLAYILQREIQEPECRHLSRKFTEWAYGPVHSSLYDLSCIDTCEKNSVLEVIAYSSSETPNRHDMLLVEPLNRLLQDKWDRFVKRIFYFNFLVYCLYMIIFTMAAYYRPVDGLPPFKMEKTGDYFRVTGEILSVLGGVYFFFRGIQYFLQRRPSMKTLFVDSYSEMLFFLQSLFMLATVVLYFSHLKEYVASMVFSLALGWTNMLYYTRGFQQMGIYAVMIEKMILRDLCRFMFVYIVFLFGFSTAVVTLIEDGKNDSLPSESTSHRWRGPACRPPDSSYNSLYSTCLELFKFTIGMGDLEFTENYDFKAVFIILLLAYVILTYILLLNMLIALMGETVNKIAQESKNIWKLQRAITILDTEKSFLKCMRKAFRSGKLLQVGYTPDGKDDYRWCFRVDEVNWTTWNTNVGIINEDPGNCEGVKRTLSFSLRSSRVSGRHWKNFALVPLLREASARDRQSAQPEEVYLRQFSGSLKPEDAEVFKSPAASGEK

[6] = cited from earlier work

Compound | number of scratching on average [1] | dermal recovery from atopic dermatitis (visual inspection) [2] | reduction of pruritus reactions ([3]; 3 wt % eugenol cream, 30 minutes) | blocking effects on histamine-dependent pruritus ([3]; 10 wt % eugenol cream) | antipruritic effects on serotonin-induced pruritus ([4]; 100 μL of 3 wt % eugenol) | antipruritic effects on serotonin-induced pruritus ([4]; 100 μL of 10 wt % eugenol) | mechanical pain, 50% avoidance reaction threshold (von-Frey) (mechanical pain) | avoidance reaction in response to heat pain (Hargreaves) [5] | concentration at which TRPV1 is activated (TRPV1) [mM] | solubility in organic solvents [6] | solubility in water [6]
CC=Cc1ccc(O)c(OC)c1 (racemic) [isoeugenol, (E) or (Z)-2-methoxy-4-(prop-1-enyl)phenol] | about 80 times |  |  |  |  |  |  |  |  |  | 
C=CCc1ccc(O)c(OC)c1 [eugenol, 4-allyl-2-methoxyphenol] | about 45 times | recovered skin to the normal level | at least 40% | increased blocking effects on histamine-dependent pruritus | antipruritic effects were not observed | showed blocking of serotonin-induced pruritus | did not show a significant difference | significantly increased avoidance reaction | ≥ 1 | high | low
C=CCc1ccc(OC)c(OC)c1 [methyleugenol] | 99 times |  |  |  |  |  |  |  |  |  | 
